Assay results reported in patent US6737383B1, “Herbicidal oxadiazolidines” (priority 1999, dated 2004).

Legend:
soybean = assay: Test B pre/postemergence soybean; type: in vivo, Glycine max
Procedure, shortened: (§1)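 Test chemicals in a non-phytotoxic solvent mixture with surfactant were sprayed preemergence onto planted seeds and postemergence onto plants 2 to 18 cm tall (1- to 4-leaf stage). After twelve to sixteen days in a greenhouse, injury was visually rated against untreated controls from 0 (no effect) to 10 (complete control).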

corn = assay: Test B pre/postemergence corn; type: in vivo, Zea mays
Procedure, shortened: as §1

pigweed = assay: Test B pre/postemergence pigweed; type: in vivo, Amaranthus retroflexus
Procedure, shortened: as §1

smallflower flatsedge = assay: Test B flood test smallflower flatsedge; type: in vivo, Cyperus difformis
Procedure, shortened: (§2)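 Plants were grown to the 2-leaf stage before treatment with test chemical, then held in a greenhouse for twelve to sixteen days. Injury was visually rated against untreated controls on a 0–10 scale, where 0 is no effect and 10 is complete control.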

cocklebur = assay: Test B pre/postemergence cocklebur; type: in vivo, Xanthium strumarium
Procedure, shortened: as §1

rice = assay: Test B flood test rice; type: in vivo, Oryza sativa
Procedure, shortened: as §2

wheat = assay: Test B pre/postemergence wheat; type: in vivo, Triticum aestivum
Procedure, shortened: as §1

blackgrass = assay: Test B pre/postemergence blackgrass; type: in vivo, Alopecurus myosuroides
Procedure, shortened: as §1

duck salad = assay: Test B flood test duck salad; type: in vivo, Heteranthera limosa; conditions: for Plant response rating, Ducksalad: scale 0 to 10, 0 is no effect, 10 is complete control; for Ducksalad plant response rating: scale of 0 to 10 where 0 is no effect and 10 is complete control
Procedure, shortened: as §2

bamyardgrass = assay: Test B flood test barnyardgrass; type: in vivo, Echinochloa crus-galli; conditions: for Plant response rating, Barnyardgrass: scale 0 to 10, 0 is no effect, 10 is complete control; for Barnyardgrass plant response rating: scale of 0 to 10 where 0 is no effect and 10 is complete control
Procedure, shortened: as §2

purple nutsedge = assay: Test B pre/postemergence purple nutsedge; type: in vivo, Cyperus rotundus
Procedure, shortened: as §1

surinam grass = assay: Test B pre/postemergence surinam grass; type: in vivo, Brachiaria decumbens
Procedure, shortened: as §1

morningglory = assay: Test B pre/postemergence morningglory; type: in vivo, Ipomoea hederacea
Procedure, shortened: as §1

sugar beet = assay: Test B pre/postemergence sugar beet; type: in vivo, Beta vulgaris
Procedure, shortened: as §1

velvetleaf = assay: Test B pre/postemergence velvetleaf; type: in vivo, Abutilon theophrasti
Procedure, shortened: as §1

crabgrass = assay: Test B pre/postemergence crabgrass; type: in vivo, Digitaria sanguinalis
Procedure, shortened: as §1

wild oat = assay: Test B pre/postemergence wild oat; type: in vivo, Avena fatua
Procedure, shortened: as §1

giant foxtail = assay: Test B pre/postemergence giant foxtail; type: in vivo, Setaria faberii
Procedure, shortened: as §1

rape = assay: Test B pre/postemergence rape; type: in vivo, Brassica napus
Procedure, shortened: as §1

[1] = Postemergence, Rate 250 g/ha, scale 0 to 10, 0 is no effect, 10 is complete control
[2] = Postemergence, Rate 500 g/ha, scale of 0 to 10 where 0 is no effect and 10 is complete control
[3] = Preemergence, Rate 62 g/ha, scale 0 to 10 (0 no effect, 10 complete control)
[4] = Preemergence, Rate 125 g/ha, scale of 0 to 10 where 0 is no effect and 10 is complete control
[5] = Preemergence, Rate 250 g/ha, scale 0 to 10, 0 is no effect, 10 is complete control
[6] = Preemergence, Rate 500 g/ha, scale 0 to 10, 0 is no effect, 10 is complete control
[7] = Postemergence, Rate 125 g/ha, scale 0 to 10, 0 is no effect, 10 is complete control
[8] = Rate 62 g/ha, Postemergence, scale of 0 to 10 where 0 is no effect and 10 is complete control
[9] = Postemergence section (flood test species), Rate 500 g/ha, scale of 0 to 10 where 0 is no effect and 10 is complete control
[10] = flood test species, listed under Postemergence, Rate 250 g/ha, scale 0 to 10, 0 is no effect, 10 is complete control
[11] = Preemergence, Rate 250 g/ha, scale of 0 to 10 where 0 is no effect and 10 is complete control
[12] = Postemergence (flood test), Rate 125 g/ha
[13] = Postemergence section (flood test species), Rate 500 g/ha
[14] = Rate 62 g/ha, Postemergence (flood test species)
[15] = flood test species, listed under Postemergence, Rate 250 g/ha

CC(C)N(C(=O)n1oc(=O)n(CCBr)c1=O)c1ccccc1 [Compound 415]
Plant response rating, Soybean (soybean; [1]): 4 | Soybean plant response rating (soybean; [2]): 7 | Plant response rating, Soybean (soybean; [3]): 0 | Plant response rating, Soybean (soybean; [4]): 0 | Soybean plant response rating (soybean; [5]): 0 | Soybean plant response rating (soybean; [6]): 0 | Plant response rating, Corn (corn; [7]): 0 | Plant response rating, Corn (corn; [1]): 1 | Corn plant response rating (corn; [2]): 2 | Plant response rating, Corn (corn; [3]): 0 | Plant response rating, Corn (corn; [4]): 2 | Corn plant response rating (corn; [5]): 3 | Corn plant response rating (corn; [6]): 4 | Corn plant response rating (corn; [8]): 0 | Plant response rating, Redroot pigweed (pigweed; [1]): 0 | Redroot pigweed plant response rating (pigweed; [2]): 3 | Plant response rating, Redroot pigweed (pigweed; [3]): 0 | Plant response rating, Redroot pigweed (pigweed; [4]): 0 | Redroot pigweed plant response rating (pigweed; [5]): 6 | Redroot pigweed plant response rating (pigweed; [6]): 10 | S. Flatsedge plant response rating (smallflower flatsedge; [9]): 3 | Plant response rating, S. Flatsedge (smallflower flatsedge; [10]): 3 | Plant response rating, Cocklebur (cocklebur; [7]): 0 | Plant response rating, Cocklebur (cocklebur; [1]): 1 | Cocklebur plant response rating (cocklebur; [2]): 4 | Plant response rating, Cocklebur (cocklebur; [3]): 0 | Plant response rating, Cocklebur (cocklebur; [4]): 0 | Cocklebur plant response rating (cocklebur; [5]): 0 | Cocklebur plant response rating (cocklebur; [6]): 0 | Cocklebur plant response rating (cocklebur; [8]): 0 | Rice plant response rating (rice; [9]): 0 | Plant response rating, Rice (rice; [10]): 0 | Wheat plant response rating (wheat; [2]): 3 | Plant response rating, Wheat (wheat; [3]): 0 | Plant response rating, Wheat (wheat; [4]): 0 | Wheat plant response rating (wheat; [5]): 2 | Wheat plant response rating (wheat; [6]): 3 | Plant response rating, Blackgrass (blackgrass; [7]): 3 | Plant response rating, Blackgrass (blackgrass; [1]): 8 | Blackgrass plant response rating (blackgrass; [2]): 9 | Plant response rating, Blackgrass (blackgrass; [3]): 5 | Plant response rating, Blackgrass (blackgrass; [4]): 5 | Blackgrass plant response rating (blackgrass; [11]): 9 | Blackgrass plant response rating (blackgrass; [6]): 9 | Blackgrass plant response rating (blackgrass; [8]): 0 | Plant response rating, Ducksalad (duck salad; [12]): 0 | Ducksalad plant response rating (duck salad; [13]): 0 | Ducksalad plant response rating (duck salad; [14]): 0 | Plant response rating, Ducksalad (duck salad; [15]): 0 | Plant response rating, Barnyardgrass (bamyardgrass; [12]): 0 | Barnyardgrass plant response rating (bamyardgrass; [13]): 0 | Barnyardgrass plant response rating (bamyardgrass; [14]): 0 | Plant response rating, Barnyardgrass (bamyardgrass; [15]): 0 | Plant response rating, Nutsedge (purple nutsedge; [1]): 0 | Nutsedge plant response rating (purple nutsedge; [2]): 0 | Plant response rating, Nutsedge (purple nutsedge; [3]): 0 | Plant response rating, Nutsedge (purple nutsedge; [4]): 0 | Nutsedge plant response rating (purple nutsedge; [5]): 0 | Nutsedge plant response rating (purple nutsedge; [6]): 0 | Plant response rating, B. signalgrass (surinam grass; [7]): 0 | Plant response rating, B. signalgrass (surinam grass; [1]): 2 | B. signalgrass plant response rating (surinam grass; [2]): 6 | Plant response rating, B. signalgrass (surinam grass; [3]): 2 | Plant response rating, B. signalgrass (surinam grass; [4]): 3 | B. signalgrass plant response rating (surinam grass; [11]): 6 | B. signalgrass plant response rating (surinam grass; Preemergence, Rate 500 g/ha, scale of 0 to 10 where 0 is no effect and 10 is complete control): 6 | B. signalgrass plant response rating (surinam grass; [8]): 0 | Plant response rating, Morningglory (morningglory; [1]): 6 | Morningglory plant response rating (morningglory; [2]): 7 | Plant response rating, Morningglory (morningglory; [3]): 0 | Plant response rating, Morningglory (morningglory; [4]): 0 | Morningglory plant response rating (morningglory; [5]): 0 | Morningglory plant response rating (morningglory; [6]): 0 | Plant response rating, Sugarbeets (sugar beet; [1]): 0 | Sugarbeets plant response rating (sugar beet; [2]): 0 | Plant response rating, Sugarbeets (sugar beet; [3]): 0 | Plant response rating, Sugarbeets (sugar beet; [4]): 0 | Sugarbeets plant response rating (sugar beet; [5]): 6 | Sugarbeets plant response rating (sugar beet; [6]): 8 | Plant response rating, Velvetleaf (velvetleaf; [1]): 2 | Velvetleaf plant response rating (velvetleaf; [2]): 2 | Plant response rating, Velvetleaf (velvetleaf; [3]): 0 | Plant response rating, Velvetleaf (velvetleaf; [4]): 2 | Velvetleaf plant response rating (velvetleaf; [5]): 6 | Velvetleaf plant response rating (velvetleaf; [6]): 7 | Plant response rating, Crabgrass (crabgrass; [7]): 1 | Plant response rating, Crabgrass (crabgrass; [1]): 8 | Crabgrass plant response rating (crabgrass; [2]): 9 | Plant response rating, Crabgrass (crabgrass; [3]): 8 | Plant response rating, Crabgrass (crabgrass; [4]): 8 | Crabgrass plant response rating (crabgrass; [5]): 9 | Crabgrass plant response rating (crabgrass; [6]): 10 | Crabgrass plant response rating (crabgrass; [8]): 0 | Wild oats plant response rating (wild oat; [2]): 3 | Plant response rating, Wild oats (wild oat; [3]): 0 | Plant response rating, Wild oats (wild oat; [4]): 3 | Wild oats plant response rating (wild oat; [5]): 6 | Wild oats plant response rating (wild oat; [6]): 6 | Plant response rating, Giant foxtail (giant foxtail; [7]): 8 | Plant response rating, Giant foxtail (giant foxtail; [1]): 9 | Giant foxtail plant response rating (giant foxtail; [2]): 9 | Plant response rating, Giant foxtail (giant foxtail; [3]): 9 | Plant response rating, Giant foxtail (giant foxtail; [4]): 10 | Giant foxtail plant response rating (giant foxtail; [5]): 10 | Giant foxtail plant response rating (giant foxtail; [6]): 10 | Giant foxtail plant response rating (giant foxtail; [8]): 5 | Plant response rating, Rape (rape; [1]): 0 | Rape plant response rating (rape; [2]): 1 | Plant response rating, Rape (rape; [3]): 2 | Plant response rating, Rape (rape; [4]): 6 | Rape plant response rating (rape; [5]): 10 | Rape plant response rating (rape; [6]): 10
